According to the supplement of paper PMC4862054:

How the values were obtained:
Details in all cases: incubation time: 72 h
HCC1143 [1] = assay: normalised response (% of control), CellTiter-Glo; higher = more viable cells (100 = DMSO, 0 = benzethonium chloride kill control)
How it was run: (§1)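 Each value is the plate-normalised signal at one concentration of the series. Breast cancer cell lines (20 µl suspension) were incubated 72 h in 384-well plates with compound at 5 concentrations in 10-fold steps over a compound-specific 10,000-fold range. CellTox Green and then CellTiter-Glo were read, and each plate was scaled to 0.1 % DMSO (100) and a positive kill control (0).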

HCC1599 [2] = assay: as above
How it was run: as §1

MDA-MB-453 [3] = assay: as above
How it was run: as §1

MDA-MB-468 [4] = assay: as above
How it was run: as §1

CAL-120 [5] = assay: as above
How it was run: as §1

MFM-223 [6] = assay: as above
How it was run: as §1

CAL-51 [7] = assay: as above
How it was run: as §1

SK-BR-3 = assay: as above
How it was run: as §1

DU-4475 [8] = assay: as above
How it was run: as §1

MDA-MB-436 [9] = assay: as above
How it was run: as §1

CAL-148 [10] = assay: as above
How it was run: as §1

CAL-85-1 [11] = assay: as above
How it was run: as §1

BT-549 [12] = assay: as above
How it was run: as §1

MDA-MB-231 [13] = assay: as above
How it was run: as §1

HCC1937 [14] = assay: as above
How it was run: as §1

MCF-10A [15] = assay: as above
How it was run: as §1

BT-474 [16] = assay: as above
How it was run: as §1

Hs578T [17] = assay: as above
How it was run: as §1

HDQ-P1 [18] = assay: as above
How it was run: as §1

HCC1143 [19] = assay: normalised response (% of control), CellTox Green; higher = less cell death (100 = DMSO, 0 = benzethonium chloride kill control)
How it was run: as §1

HCC1599 [20] = assay: as above
How it was run: as §1

MDA-MB-453 [21] = assay: as above
How it was run: as §1

MDA-MB-468 [22] = assay: as above
How it was run: as §1

CAL-120 [23] = assay: as above
How it was run: as §1

MFM-223 [24] = assay: as above
How it was run: as §1

CAL-51 [25] = assay: as above
How it was run: as §1

DU-4475 [26] = assay: as above
How it was run: as §1

MDA-MB-436 [27] = assay: as above
How it was run: as §1

CAL-148 [28] = assay: as above
How it was run: as §1

CAL-85-1 [29] = assay: as above
How it was run: as §1

BT-549 [30] = assay: as above
How it was run: as §1

MDA-MB-231 [31] = assay: as above
How it was run: as §1

MCF-10A [32] = assay: as above
How it was run: as §1

BT-474 [33] = assay: as above
How it was run: as §1

Hs578T [34] = assay: as above
How it was run: as §1

HDQ-P1 [35] = assay: as above
How it was run: as §1

HCC1937 [36] = assay: as above
How it was run: as §1

Row | SMILES | normalised response (HCC1143 [1]) [%] | normalised response (HCC1599 [2]) [%] | normalised response (MDA-MB-453 [3]) [%] | normalised response (MDA-MB-468 [4]) [%] | normalised response (CAL-120 [5]) [%] | normalised response (MFM-223 [6]) [%] | normalised response (CAL-51 [7]) [%] | normalised response (SK-BR-3) [%] | normalised response (DU-4475 [8]) [%] | normalised response (MDA-MB-436 [9]) [%] | normalised response (CAL-148 [10]) [%] | normalised response (CAL-85-1 [11]) [%] | normalised response (BT-549 [12]) [%] | normalised response (MDA-MB-231 [13]) [%] | normalised response (HCC1937 [14]) [%] | normalised response (MCF-10A [15]) [%] | normalised response (BT-474 [16]) [%] | normalised response (Hs578T [17]) [%] | normalised response (HDQ-P1 [18]) [%] | normalised response (HCC1143 [19]) [%] | normalised response (HCC1599 [20]) [%] | normalised response (MDA-MB-453 [21]) [%] | normalised response (MDA-MB-468 [22]) [%] | normalised response (CAL-120 [23]) [%] | normalised response (MFM-223 [24]) [%] | normalised response (CAL-51 [25]) [%] | normalised response (DU-4475 [26]) [%] | normalised response (MDA-MB-436 [27]) [%] | normalised response (CAL-148 [28]) [%] | normalised response (CAL-85-1 [29]) [%] | normalised response (BT-549 [30]) [%] | normalised response (MDA-MB-231 [31]) [%] | normalised response (MCF-10A [32]) [%] | normalised response (BT-474 [33]) [%] | normalised response (Hs578T [34]) [%] | normalised response (HDQ-P1 [35]) [%] | normalised response (HCC1937 [36]) [%]
1 | Cc1ccc(C(=O)N(CCCN)[C@@H](c2oc3cc(Cl)ccc3c(=O)c2Cc2ccccc2)C(C)C)cc1 (10 nM) | 97.1 | 100 | 94.8 | 90.7 | 102 | 90.2 | 120 | 92.5 | 96.5 | 107 | 91.3 | 101 | 100 | 98.8 | 101 | 103 | 97.9 | 97.5 | 103 | 112 | 91.8 | 102 | 111 | 95.5 | 101 | 108 | 104 | 100 | 90.8 | 108 | 88 | 94.4 | 112 | 89.8 | 103 | 85.7 | –
2 | O=C(O)c1ccc(-c2c[nH]c3ncc(-c4ccccc4)cc23)cc1C1CCCC1 (1000 nM) | 101 | 102 | 96.8 | 93.6 | 102 | 95.6 | 105 | 90.2 | 91.4 | 103 | 95.6 | 99.2 | 100 | 92.4 | 97 | 100 | 89.9 | 94.1 | 105 | 96.2 | 90.9 | 96.7 | – | 98.4 | 93.1 | 93.6 | 96.3 | 85.1 | – | 108 | 92.9 | 86.1 | 103 | 95.8 | 92.2 | 109 | 100
3 | N.N.[Cl][Pt][Cl] [Cisplatin] (100 nM) | 104 | 98.7 | 94.9 | 98.5 | 101 | 96.6 | 116 | 99.2 | 90.2 | 101 | 90.7 | 96.2 | 90.4 | 98.7 | 102 | 1.72 | 102 | 102 | 107 | 109 | 97.4 | 110 | 94.6 | 109 | 82.7 | 103 | 107 | 107 | 105 | 121 | 80.2 | 74 | -220 | 99.2 | 85.4 | 118 | –
4 | N#CCNC(=O)c1ccc(-c2ccnc(Nc3ccc(N4CCOCC4)cc3)n2)cc1 [Momelotinib] (1000 nM) | 91.7 | 110 | 113 | 82.5 | 75.8 | 93.4 | 122 | 86.6 | 90.5 | 96.9 | 85 | 92.7 | 89.6 | 77.2 | 108 | 77 | 77.1 | 93 | 107 | 113 | 95.9 | 108 | 178 | 102 | 99.5 | 117 | 97.7 | 103 | 98.7 | 89.6 | 96.5 | 100 | 108 | 101 | 99.4 | 111 | –
5 | CCC(C)(C)C(=O)O[C@H]1C[C@@H](C)C=C2C=C[C@H](C)[C@H](CC[C@@H]3C[C@@H](O)CC(=O)O3)[C@H]21 [Simvastatin] (1000 nM) | 96.3 | 102 | 102 | – | 96.7 | 98.9 | 109 | 106 | – | 98.9 | 104 | 96.6 | 93.6 | 81.6 | 98.4 | 111 | 75 | 92.9 | 92.6 | 115 | 95.7 | 106 | – | 102 | 100 | 111 | – | 106 | 102 | 97.2 | 94.5 | 86.9 | 93.2 | 94.2 | 77.5 | 81.5 | 78.2
6 | CC(=O)Nc1ccc(C(=O)Nc2ccccc2N)cc1 [Tacedinaline] (100 nM) | 97.1 | 126 | 102 | 109 | 99.2 | 106 | 114 | 95.4 | 93.6 | 102 | 97.2 | 101 | 106 | 102 | 102 | 93.7 | 105 | 98.4 | 100 | 110 | 97.4 | 105 | – | 101 | 101 | 103 | 99.2 | 110 | 105 | 107 | 117 | 108 | – | 99.1 | 92.4 | 76.9 | 115
7 | NC(=O)Nc1cc(-c2cccc(F)c2)sc1C(=O)N[C@H]1CCCNC1 [AZD7762] (100 nM) | 96.8 | 78.5 | 83.2 | 99.3 | 95.9 | 104 | 111 | 99.6 | 98.4 | 92.4 | 97.9 | 59.5 | 73.4 | 88.7 | 97.2 | 91.6 | 93.7 | 93 | 95.2 | 82.6 | 103 | 101 | 50.3 | 99.8 | 101 | 104 | 100 | 83.7 | 102 | 36.1 | 105 | 105 | – | 102 | 64.1 | 103 | 125
8 | CCCCCCCCCCCCCCCCCCOP(=O)([O-])OC1CC[N+](C)(C)CC1 [Perifosine] (250 nM) | 104 | 101 | 98.2 | 99.7 | 104 | 93.7 | 116 | 97.7 | 96.5 | 99.3 | 97.7 | 95.4 | 97 | 102 | 101 | 110 | 102 | 104 | 105 | 118 | 97.8 | 104 | – | 106 | 59.2 | 110 | 101 | 94.7 | 93.9 | 107 | 88.6 | 79.8 | 102 | 100 | 97.2 | 115 | 107
9 | C[C@@H](Oc1cc(-c2cnn(C3CCNCC3)c2)cnc1N)c1c(Cl)ccc(F)c1Cl [Crizotinib] (100 nM) | 100 | 114 | 91.7 | 96.1 | 100 | 97.1 | 104 | 92.4 | 99.2 | 102 | 95.6 | 116 | 90.4 | 98.6 | 98.5 | 107 | 102 | 99.7 | 98.8 | 114 | 104 | 90.9 | 122 | 104 | 99.2 | 111 | 105 | 80.2 | 106 | 93.4 | 140 | 123 | 105 | 104 | – | 95.8 | 79.2
